{
  "source": "patent US20240409576A1",
  "about": "“-ent-19-norprogesterone, compositions and uses thereof to treat traumatic brain injury (TBI), including concussions-” (Oragenics, Inc., priority 2015, published 2024)",
  "key": {"[1]": {"test_system": "rat model of traumatic brain injury (mid-line cortical impact)", "type": "in vivo, Sprague-Dawley rats", "conditions": "48 h post-injury"}, "physchem": {"assay": "physchem", "conditions": "aqueous with cosolvent or surfactant or cyclodextrin, thermodynamic from solid"}, "[2]": {"test_system": "rat model of traumatic brain injury (mid-line cortical impact)", "type": "in vivo, Sprague-Dawley rats"}, "[3]": {"test_system": "rat model of traumatic brain injury (mid-line cortical impact)", "type": "in vivo, Sprague-Dawley rats", "remark": "listed apart in the source"}, "[4]": {"test_system": "rat model of traumatic brain injury (mid-line cortical impact)", "type": "in vivo, Sprague-Dawley rats", "conditions": "for Motor function (neuroscore) compared to vehicle-treated rats: 48 h post-injury, 6 h, 24 h"}, "[5]": {"test_system": "rat model of traumatic brain injury (mid-line cortical impact)", "type": "in vivo, Sprague-Dawley rats", "conditions": "48 h post-injury", "remark": "listed apart in the source"}, "[6]": {"test_system": "rat model of traumatic brain injury (mid-line cortical impact)", "type": "in vivo, Sprague-Dawley rats", "conditions": "48 h post-injury; for Time spent in thigmotaxia compared to vehicle-treated rats: trial not stated"}, "nasal mucosa of a rat": {"test_system": "nasal mucosa of a rat", "assay": "Intranasal penetration of Evans Blue labeled PRV002, atomizer vs pipette", "type": "in vivo", "conditions": "PRV002 labeled with Evans Blue dye, post-mortem evaluation", "protocol": "The goal of this study is to evaluate the motor and cognitive function of rats treated via intranasal administration with PRV-002, an analogue of the enantiomer of progesterone, following traumatic brain injury. Prior to the initiation of the treatment study, an anatomical evaluation is performed using PRV002 labeled with Evans Blue dye to determine the optimal intranasal/intracerebral penetration of compound using intranasal administration via a miniature atomizer vs. a manual pipette."}, "[7]": {"conditions": "under certain conditions; cited from earlier work"}, "[8]": {"test_system": "moderate-to-severe adult TBI", "conditions": "progesterone IV for 3 days after injury, cited from earlier work"}, "[9]": {"conditions": "trial 1, intraperitoneal 4 mg/kg"}, "[10]": {"conditions": "trial 1, intraperitoneal 16 mg/kg"}, "[11]": {"conditions": "trial 2, intraperitoneal 4 mg/kg"}, "[12]": {"conditions": "trial 2, intraperitoneal 16 mg/kg"}, "[13]": {"conditions": "trial not given, intraperitoneal 4 mg/kg"}, "[14]": {"conditions": "trial not given, intraperitoneal 16 mg/kg"}, "[15]": {"conditions": "48 h post-injury, intranasal 0.05 mg/kg"}},
  "note": "Entries after “also recorded” stand apart in the source; their conditions may differ. Where two headings read alike, the source gives them in different places.",
  "data": [
    {"compound": "CC(=O)[C@@H]1CC[C@@H]2[C@H]3CCC4=CC(=O)CC[C@H]4[C@@H]3CC[C@]21C", "note": "(single isomer, unassigned; ent-19) [PRV-002, ent-19-norpregn-4-ene-3,20-dione]", "values": [
      {"measurement": "Time spent in thigmotaxia vs vehicle-treated injured rats", "setting": "[1]; [9]", "result": "vehicle-treated rats spend significantly more time in thigmotaxia"},
      {"measurement": "Time spent in thigmotaxia vs vehicle-treated injured rats", "setting": "[1]; [10]", "result": "vehicle-treated rats spend significantly more time in thigmotaxia"},
      {"measurement": "Time spent in thigmotaxia vs vehicle-treated injured rats", "setting": "[1]; [11]", "result": "vehicle-treated rats spend significantly more time in thigmotaxia"},
      {"measurement": "Time spent in thigmotaxia vs vehicle-treated injured rats", "setting": "[1]; [12]", "result": "vehicle-treated rats spend significantly more time in thigmotaxia"},
      {"measurement": "Time spent in thigmotaxia vs vehicle-treated injured rats", "setting": "[1]; [13]", "result": "ameliorated; also recorded: vehicle-treated injured rats spend significantly more time in thigmotaxia; also recorded: spend less time in the thigmotaxia area"},
      {"measurement": "Time spent in thigmotaxia vs vehicle-treated injured rats", "setting": "[1]; [14]", "result": "ameliorated; also recorded: vehicle-treated injured rats spend significantly more time in thigmotaxia; also recorded: spend less time in the thigmotaxia area"},
      {"measurement": "solubility", "setting": "physchem", "result": "~23", "unit": "mg/mL"},
      {"measurement": "Cognitive function (post-traumatic memory)", "setting": "[2]; 48 h post-injury/treatment, intranasal 4 mg/kg, trial not stated", "result": "significant improvement in cognitive function"},
      {"measurement": "Morris water maze memory score (cognitive performance) compared to all other groups", "setting": "[2]; rat, in vivo", "result": "all groups have significantly lower memory scores than PRV-002 4 mg/kg-treated rats"},
      {"measurement": "Morris water maze memory score (cognitive performance) compared to all other groups", "setting": "[2]; trial 1, 48 h post-injury, intranasal 4 mg/kg", "result": "significantly better cognitive performance"},
      {"measurement": "Group differences in cognitive performance (Morris water maze memory score)", "setting": "[2]; trial 2, 48 h post-injury, intranasal 0.05, 0.1, 1, 4 mg/kg groups", "result": "significant group differences in cognitive performance are not observed"},
      {"measurement": "Motor function (neuroscore) compared to vehicle-treated rats", "setting": "[3]; 24 h post-injury, intranasal 0.1 mg/kg", "result": "significantly improved motor function"},
      {"measurement": "Motor function (neuroscore) compared to vehicle-treated rats", "setting": "[3]; 24 h post-injury, intranasal 0.1 mg/kg, listed as PRV002", "result": "significantly improved"},
      {"measurement": "Motor function (neuroscore) compared to vehicle-treated rats", "setting": "[3]; 24 h post-injury, intranasal 4 mg/kg", "result": "significantly improved motor function"},
      {"measurement": "Motor function (neuroscore) compared to vehicle-treated rats", "setting": "[3]; 24 h post-injury, intranasal 4 mg/kg, listed as PRV002", "result": "significantly improved"},
      {"measurement": "Motor function (neuroscore) compared to vehicle-treated rats", "setting": "[3]; [15]", "result": "significantly better motor function"},
      {"measurement": "Motor performance (neuroscore) compared to sham rats", "setting": "[3]; [15]", "result": "significantly worse performance"},
      {"measurement": "Motor function (neuroscore) compared to vehicle-treated rats", "setting": "[3]; 48 h post-injury, intranasal 0.05 mg/kg, listed as PRV002", "result": "significantly improved motor function"},
      {"measurement": "Motor function (neuroscore) compared to vehicle-treated rats", "setting": "[3]; 48 h post-injury, intranasal 0.1 mg/kg", "result": "significantly better motor function"},
      {"measurement": "Motor function (neuroscore) compared to vehicle-treated rats", "setting": "[3]; 48 h post-injury, intranasal 0.1 mg/kg, listed as PRV002", "result": "significantly improved motor function"},
      {"measurement": "Motor performance (neuroscore) compared to sham rats", "setting": "[3]; 48 h post-injury, intranasal 1 mg/kg", "result": "significantly worse performance"},
      {"measurement": "Motor function (neuroscore) compared to vehicle-treated rats", "setting": "[3]; 48 h post-injury, intranasal 4 mg/kg", "result": "significantly better motor function"},
      {"measurement": "Motor function (neuroscore) compared to vehicle-treated rats", "setting": "[3]; 48 h post-injury, intranasal 4 mg/kg, listed as PR V-002", "result": "significantly better motor function"},
      {"measurement": "Motor function (neuroscore) compared to vehicle-treated rats", "setting": "[3]; 48 h post-injury, intranasal 4 mg/kg, listed as PRV002", "result": "significantly improved motor function"},
      {"measurement": "Motor performance scores (neuroscore) compared to sham rats", "setting": "[3]; rat, in vivo", "result": "not significantly different from sham rats"},
      {"measurement": "Group differences in neuroscore", "setting": "[4]; 24 h post-injury, intraperitoneal 4 mg/kg or 16 mg/kg, sham, vehicle and treated groups", "result": "failed to reveal significant differences; also recorded: no significant group differences"},
      {"measurement": "Motor function (neuroscore) compared to vehicle-treated rats", "setting": "[4]; intraperitoneal 4 mg/kg at 15 min", "result": "significant improvement; also recorded: significantly better motor performance; also recorded: significant attenuation of TBI-induced motor function deficits; also recorded: significantly better motor function"},
      {"measurement": "Motor function (neuroscore) compared to vehicle-treated rats", "setting": "[4]; intraperitoneal 16 mg/kg at 15 min", "result": "significant improvement; also recorded: significantly better motor performance; also recorded: significant attenuation of TBI-induced motor function deficits; also recorded: significantly better motor function"},
      {"measurement": "Morris water maze memory score (cognitive deficits) vs vehicle-treated injured rats", "setting": "[5]; [9]", "result": "significantly attenuated TBI-related cognitive deficits"},
      {"measurement": "Morris water maze memory score (cognitive deficits) vs vehicle-treated injured rats", "setting": "[5]; [10]", "result": "significantly attenuated TBI-related cognitive deficits"},
      {"measurement": "Morris water maze memory score (cognitive deficits) vs vehicle-treated injured rats", "setting": "[5]; [11]", "result": "significantly attenuated TBI-related cognitive deficits"},
      {"measurement": "Morris water maze memory score (cognitive deficits) vs vehicle-treated injured rats", "setting": "[5]; [12]", "result": "significantly attenuated TBI-related cognitive deficits"},
      {"measurement": "Morris water maze memory score (cognitive deficits) vs vehicle-treated injured rats", "setting": "[5]; [13]", "result": "ameliorated; also recorded: vehicle-treated injured rats have significantly worse cognitive function; also recorded: amelioration of TBI-induced cognitive deficits"},
      {"measurement": "Morris water maze memory score (cognitive deficits) vs vehicle-treated injured rats", "setting": "[5]; [14]", "result": "ameliorated; also recorded: vehicle-treated injured rats have significantly worse cognitive function; also recorded: amelioration of TBI-induced cognitive deficits"},
      {"measurement": "Group differences in time spent in thigmotaxia", "setting": "[6]; trial 1, intranasal 0.05, 0.1, 1, 4 mg/kg groups", "result": "no significant group differences are observed in time spent in thigmotaxia"},
      {"measurement": "Time spent in thigmotaxia compared to vehicle-treated injured rats", "setting": "[6]; trial 2, intranasal 4 mg/kg", "result": "significantly less time in thigmotaxia"},
      {"measurement": "Time spent in thigmotaxia compared to sham rats", "setting": "[6]; trial 2, intranasal 005 mg/kg", "result": "significantly more time in thigmotaxia"},
      {"measurement": "Time spent in thigmotaxia compared to vehicle-treated rats", "setting": "[6]; intranasal 4 mg/kg", "result": "spent significantly less time in thigmotaxia"},
      {"measurement": "Time spent in thigmotaxia compared to vehicle-treated rats", "setting": "[6]; intranasal 4 mg/kg, listed as PRV002", "result": "significantly reduced"},
      {"measurement": "Nasal mucosal penetration, miniature atomizer vs manual pipette", "setting": "nasal mucosa of a rat", "result": "clear advantage of the miniature atomizer over the pipette technique"},
      {"measurement": "Resultant solution", "setting": "30 mg in 1 ml Solution 1, mix time 60 min", "result": "Hazy"},
      {"measurement": "Resultant solution", "setting": "+0.1 ml Solution 1, ~1.1 ml, mix time 120 min", "result": "Hazy"},
      {"measurement": "Resultant solution", "setting": "+0.1 ml Solution 1, ~1.2 ml, mix O/N", "result": "Hazy to Clear"}
    ]},
    {"compound": "CC(=O)[C@@H]1CC[C@@H]2[C@H]3CCC4=CC(=O)CC[C@@]4(C)[C@@H]3CC[C@]21C", "note": "[ent-Progesterone, ent-progesterone]", "values": [
      {"measurement": "Antioxidant activity relative to racemate", "setting": "[7]", "result": "three times the antioxidant activity of racemate"}
    ]},
    {"compound": "CC(=O)[C@H]1CC[C@H]2[C@@H]3CCC4=CC(=O)CC[C@]4(C)[C@H]3CC[C@]12C", "note": "[progesterone]", "values": [
      {"measurement": "Mortality rate", "setting": "[8]; control 30.4%", "result": 13.6, "unit": "%"},
      {"measurement": "Serious adverse events", "setting": "[8]; data safety monitoring board", "result": "no serious adverse events attributable to progesterone treatment"}
    ]}
  ]
}
